The record followed here is patent US6727206B2, “Substituted aryl ketones” (Bayer Aktiengesellschaft, priority 1999, dated 2004).

Read-outs that look alike come from different tables or passages of the source.

Series [1] can be described thus: logP determination by HPLC on reversed-phase column (C 18), EEC directive 79/831 Annex V.A8. Type of series: physicochemical. To be noted: for logP: Table 1; label a): acidic range. On the procedure: Temperature: 43° C. (a) Mobile phases for the determination in the acidic range: 0.1% aqueous phosphoric acid, acetonitrile; linear gradient of 10% acetonitrile to 90% acetonitrile—the corresponding data in Table 1 are labelled ^a). (b) Mobile phases for the determination in the neutral range: 0.01 molar aqueous phosphate buffer solution, acetonitrile, linear gradient from 10% acetonitrile to 90% acetonitrile—the corresponding data in Table 1 are labelled ^b).

Series [2] has as its system weeds. Put plainly: Pre-emergence test, activity against weeds. It counts as in vivo. The conditions noted are these: soil sprayed 24 hours after sowing, rated after three weeks. From the text:
(§1) Seeds of the test plants are sown in normal soil.
(§2) After three weeks, the degree of damage to the plants is rated in % damage in comparison to the development of the untreated control.

The test system of series [3] is crop plants, such as cotton, maize, soya and wheat. Put plainly: Pre-emergence test, tolerance by crop plants. Type of series: in vivo. To be noted: rated after three weeks.
Source text: as §1, §2

Series [4] has as its system weeds. Put plainly: Post-emergence test, activity against weeds. Type of series: in vivo. The conditions noted are these: test plants of 5 to 15 cm sprayed, rated after three weeks.
Source text: as §2

The test system of series [5] is crop plants, such as maize. Put plainly: Post-emergence test, tolerance by crop plants. Type of series: in vivo. The conditions noted are these: rated after three weeks.
Source text: as §2

The mark [6] stands for this setting: 0.1% aqueous phosphoric acid/acetonitrile gradient, 43° C.

One may read the melting point as the temperature of the solid-liquid transition.

In the case of `Cn1nc(S(=O)(=O)c2ccc(C(=O)C3C(=O)CCCC3=O)c(Cl)c2)n(C)c1=O` [Example 13], the logP result in series [1] (setting [6]) is “logP = 2.09^a)”.

As for `Cn1c([S+]([O-])Cc2c(Cl)ccc(C(=O)C3C(=O)CCCC3=O)c2Cl)n[nH]c1=O` (stereo not shown) [Example 28], the logP result in series [1] (setting [6]) is recorded as “logP = 1.61^a)”. Take `Cn1nc(SCc2c(Cl)ccc(C(=O)C3C(=O)CCCC3=O)c2Cl)n(C)c1=O` [Example 20]: in series [1] (setting [6]), the logP result is listed as “logP = 2.24^a)”. Same read-out and setting: for `Cn1c(S(=O)(=O)c2ccc(C(=O)C3C(=O)CCCC3=O)c(Cl)c2)n[nH]c1=O` [Example 14] the value was “logP = 1.88^a)”; for `CCn1ncc(C(=O)c2ccc(C(F)(F)F)cc2C[S+]([O-])c2nn(C)c(=O)n2C)c1O` (stereo not shown) [Example 71], “logP = 1.77^a)”. For `CCn1ncc(C(=O)c2ccc(Sc3n[nH]c(=O)n3C)cc2Cl)c1O`, the melting point worked out at 216 °C. For `Cn1c(Sc2ccc(C(=O)C3C(=O)CCCC3=O)c(Cl)c2)nn(Cc2ccccc2)c1=O` [Example 57], the logP entry in series [1] (setting [6]) is recorded as “logP = 3.04^a)”.

As for `CCCn1nc(Sc2ccc(C(=O)C3C(=O)CCCC3=O)c(Cl)c2)n(C)c1=O` [Example 49], the logP entry in series [1] (setting [6]) is “logP = 2.63^a)”. For `Cn1nc(S(=O)(=O)Cc2c(Cl)ccc(C(=O)C3C(=O)CCCC3=O)c2Cl)n(C)c1=O` [Example 23], in series [1] (setting [6]), the logP entry is “logP = 2.09^a)”. For the molecule `Cn1nc(Sc2ccc(C(=O)C3C(=O)CCCC3=O)c(Cl)c2)n(C)c1=O` [Example 6], in series [1] (setting [6]), the logP entry is listed as “logP = 2.08^a)”.

Consider `Cn1nc(S(=O)(=O)c2cc(C(F)(F)F)ccc2C(=O)C2C(=O)CCCC2=O)n(C)c1=O` [Example 68], for which the logP result in series [1] (setting [6]) is “logP = 1.85^a)”.

As for `C#CCn1nc(Sc2ccc(C(=O)C3C(=O)CCCC3=O)c(Cl)c2)n(C)c1=O` [Example 53], the logP result in series [1] (setting [6]) is listed as “logP = 2.37^a)”. In turn, `Cn1nc(SCc2cc(C(F)(F)F)ccc2C(=O)O)n(C)c1=O` [II-9, 2-[(4,5-dihydro-1,4-dimethyl-5-oxo-1H-1,2,4-triazol-3-yl)-sulphanylmethyl]-4-trifluoromethyl-benzoic acid] gave a chromatographic logP in series [1] (reversed-phase HPLC column (C 18), Table 2 (starting materials of formula II); label a): acidic range) of 1.94. `Cn1nc([S+]([O-])Cc2cc(C(F)(F)F)ccc2C(=O)C2C(=O)CCCC2=O)n(C)c1=O` (stereo not shown) [Example 70]: in series [1] (setting [6]), the logP result is “logP = 1.95^a)”. As to `Cn1c(Sc2cc(C(F)(F)F)ccc2C(=O)C2C(=O)CCCC2=O)n[nH]c1=O` [Example 1, 2-[2-[(4-methyl-5-oxo-4,5-dihydro-1H-1,2,4-triazol-3-yl)-sulphanyl]-4-trifluoromethyl-benzoyl]-1,3-cyclohexanedione], the chromatographic logP in series [1] (reversed-phase HPLC column (C 18), Example 1, mobile phase range not labelled, read-out: log P) came to 2. Further, the “activity against weeds (degree of damage)” value with weeds [2] and with weeds [4] was “strong activity” throughout. For the same molecule, the “tolerance by crop plants” value in series [3] and in series [5] was “tolerated well” throughout. As to `CCn1ncc(C(=O)c2ccc(C(F)(F)F)cc2S(=O)(=O)c2nn(C)c(=O)n2C)c1O` [Example 69], the logP entry in series [1] (setting [6]) is on record as “logP = 1.72^a)”. Still for that read-out and setting: for `Cc1nn(C)c(O)c1C(=O)c1ccc(Sc2nn(C)c(=O)n2C)cc1Cl` [Example 9] the value was “logP = 1.34^a)”. `Cn1c(C(S)c2c(Cl)ccc(C(=O)C3C(=O)CCCC3=O)c2Cl)n[nH]c1=O` (stereo not shown): the melting point is 187 °C. Consider `Cn1c(Sc2ccc(C(=O)C3C(=O)CCCC3=O)c(Cl)c2)nn(CC2CC2)c1=O` [Example 55], for which the logP entry in series [1] (setting [6]) is “logP = 2.72^a)”. `Cn1c(S(=O)(=O)Cc2c(Cl)ccc(C(=O)C3C(=O)CCCC3=O)c2Cl)n[nH]c1=O` [Example 25]: in series [1] (setting [6]), the logP entry was “logP = 1.87^a)”. As for `CCn1nc(Sc2ccc(C(=O)C3C(=O)CCCC3=O)c(Cl)c2)n(C)c1=O` [Example 47], in series [1] (setting [6]), the logP result is reported as “logP = 2.34^a)”. For `Cn1nc(Sc2cc(C(F)(F)F)ccc2C(=O)C2C(=O)CCCC2=O)n(C)c1=O` [Example 15], the “activity against weeds (degree of damage)” value in the series with weeds [2] and in the series with weeds [4] was “strong activity” throughout. For the same molecule, the “tolerance by crop plants” value in series [3] and in series [5] was “tolerated well” throughout. Molecule `Cn1c([S+]([O-])Cc2c(Cl)ccc(C(=O)C3C(=O)CCCC3=O)c2Cl)n[nH]c1=O` (stereo not shown) [Example 22, 2-[2,4-dichloro-3-[(4-methyl-5-oxo-4,5-dihydro-1H-1,2,4-triazol-3-yl)-sulphinylmethyl]-benizoyl]-1,3-cyclohexanedione] registered a chromatographic logP in series [1] (reversed-phase HPLC column (C 18); Table 1; label a): acidic range, 0.1% aqueous phosphoric acid/acetonitrile gradient, 43° C.) of 1.6. In the case of `C=CCn1nc(Sc2ccc(C(=O)C3C(=O)CCCC3=O)c(Cl)c2)n(C)c1=O` [Example 51], the logP entry in series [1] (setting [6]) is recorded as “logP = 2.47^a)”.
